Source: ChEMBL document CHEMBL6071145, “A novel theranostic strategy for myocardial infarction through neutralization of endogenous SO2 using an endoplasmic reticulum-targeted fluorescent probe” (Eur J Med Chem, 2024)
Values belong to the compound of their own block, whether it stands above or below them. Calls of active or inactive are those of the source. No cut-off for these calls is given here.

Key:
H9c2 [1] = assay: Cardioprotective activity against H2O2 induced rat H9c2 cells preincubated with compound for 1 hr followed by H2O2 addition for 0.5 hr by confocal microscopic analysis; type: functional, cell-based; settings: time 90.0 min
H9c2 [2] = assay: Cytotoxicity against rat H9c2 cells at 80 uM incubated for 48 hrs by CCK-8 assay; type: toxicity, cell-based; settings: h9c2, 48 h
[3] = Drug uptake in male C57BL mouse model assessed as increase in fluorescence signal in apex cordis at 25 mg/kg; type: ADME, organism-based, Apex of heart; settings: in vivo
H9c2 [4] = assay: Cardioprotective activity against H2O2 induced rat H9c2 cells assessed as decrease in red fluorescence at 5 to 50 uM preincubated with compound for 1 hr followed by H2O2 addition for 0.5 hr by confocal microscopic analysis; type: functional, cell-based; settings: dose 5-50 µM, time 90.0 min
H9c2 [5] = assay: Cardioprotective activity against H2O2 induced rat H9C2 cells assessed as increase in green fluorescence at 5 to 50 uM preincubated with compound for 1 hr followed by H2O2 addition for 0.5 hr by confocal microscopic analysis; type: functional, cell-based; settings: dose 5-50 µM, time 90.0 min
H9c2 [6] = assay: Cardioprotective activity against H2O2 induced rat H9c2 cells assessed as production of BCL-2 protein at 0 to 50 uM preincubated with compound for 1 hr followed by H2O2 addition for 0.5 hr by Western blot analysis; type: functional, cell-based; settings: dose 0-50 µM, time 90.0 min
Mus musculus [7] = species: Mus musculus; assay: Cardioprotective activity against myocardial infarction male C57BL mouse assessed as increase in BCL-2 expression in peri-ischemic region by Western blot analysis; type: functional, organism-based
Mus musculus [8] = species: Mus musculus; assay: Cardioprotective activity against myocardial infarction male C57BL mouse assessed as increase in BCL-2 expression in ischemic region by Western blot analysis; type: functional, organism-based
Mus musculus [9] = species: Mus musculus; assay: Cardioprotective activity against myocardial infarction male C57BL mouse assessed as decrease in tissue structure by HE staining based analysis; type: functional, organism-based
Mus musculus [10] = species: Mus musculus; assay: Cardioprotective activity against myocardial infarction male C57BL mouse assessed as decrease in cardiac fibrosis by Masson staining based analysis; type: functional, organism-based
Mus musculus [11] = species: Mus musculus; assay: Cardioprotective activity against myocardial infarction male C57BL mouse assessed as […] in apoptosis by TUNEL staining based analysis; type: functional, organism-based
A549 = assay: Cytotoxicity against human A549 cells assessed as reduction in cell viability at 100 uM incubated for 48 hrs by CCK-8 assay; type: functional, cell-based
L02 = assay: Cytotoxicity against human LO2 cells assessed as reduction in cell viability at 100 uM incubated for 48 hrs by CCK-8 assay; type: toxicity, cell-based; settings: l02, 48 h
[12] = Drug localization in endoplasmic reticulum of human A549 cells assessed as colocalization incubated for 20 mins by ER-Tracker Green staining based anlaysis; type: ADME, subcellular; settings: a549, 20 min
[13] = Drug localization in lysosomes of human A549 cells assessed as colocalization incubated for 20 mins by lysoTracker Green DND-26 staining based analysis; type: ADME, subcellular, Lysosome; settings: a549, 20 min
[14] = Drug localization in mitochondria of human A549 cells assessed as colocalization incubated for 20 mins by MitoTracker Green staining based analysis; type: ADME; settings: a549, 20 min
[15] = Drug localization in golgi body of human A549 cells assessed as colocalization incubated for 20 mins by Golgi-Tracker Green staining based analysis; type: ADME, subcellular; settings: a549, 20 min
[16] = Drug localization in nucleus of human A549 cells assessed as colocalization incubated for 20 mins by […] staining based analysis; type: ADME, subcellular; settings: a549, 20 min
[17] = Photostability of compound in human A549 cells at 5 uM measured within 3 min in the presence of light-irradition; type: ADME, cell-based; settings: a549, 0.05 h
[18] = Drug uptake in human A549 cells assessed as decrease in red channel at 5 uM treated with SO2 incubated for 1 hr by confocal microscopic analysis; type: ADME, cell-based; settings: a549, 1 h
[19] = Drug uptake in human A549 cells assessed as increase in green channel at 5 uM treated with SO2 for 1 hr by confocal microscopic analysis; type: ADME, cell-based; settings: a549, 1 h
[20] = Drug uptake in human A549 cells assessed as increase in fluorescence ratio at 5 uM treated with SO2 for 1 hr by confocal microscopic analysis; type: ADME, cell-based; settings: a549, 1 h
[21] = Drug uptake in human A549 cells assessed as increase in fluorescence ratio at 5 uM pretreated with NaHSO3 for 1 hr followed by SO2 for 1 hr by confocal microscopic analysis; type: ADME, cell-based; settings: a549, 2 h
[22] = Drug uptake in human A549 cells assessed as decrease in red channel at 5 to 100 uM pretreated with NaHSO3 for 1 hr followed by SO2 for 1 hr by confocal microscopic analysis; type: ADME, cell-based; settings: a549, 2 h, dose 5-100 µM
[23] = Drug uptake in human A549 cells assessed as increase in green channel at 5 to 100 uM pretreated with NaHSO3 for 1 hr followed by SO2 for 1 hr by confocal microscopic analysis; type: ADME, cell-based; settings: a549, 2 h, dose 5-100 µM

Drug uptake [3]: Active
Compound: O=S(=O)([O-])CCCC[n+]1c(CC(c2ccc(N(c3ccccc3)c3ccccc3)cc2)S(=O)(=O)[O-])sc2ccccc21.[Na+] (stereo unspecified)
Activity (H9c2 [1]): inactive
Activity (H9c2 [2]): Non-Toxic

Drug uptake [12]: Active
Drug uptake [13]: Not Active
Drug uptake [14]: Not Active
Drug uptake [15]: Not Active
Drug uptake [16]: Not Active
Stability [17]: Stable
Drug uptake [18]: Active
Drug uptake [19]: Active
Drug uptake [20]: Active
Drug uptake [21]: Active
Drug uptake [22]: Active
Drug uptake [23]: Active
Compound: O=S(=O)([O-])CCCC[n+]1c(/C=C/c2ccc(N(c3ccccc3)c3ccccc3)cc2)sc2ccccc21
Activity (H9c2 [4]): Active
Activity (H9c2 [5]): Active
Activity (H9c2 [6]): Active
Activity (H9c2 [2]): Non-Toxic
Activity (Mus musculus [7]): Active
Activity (Mus musculus [8]): Active
Activity (Mus musculus [9]): Active
Activity (Mus musculus [10]): Active
Activity (Mus musculus [11]): Active
Activity (A549): Active
Activity (L02): Non-Toxic
